Laboratory results reported in patent US12721861B2, “Delivery and retention of active agents within the skin” (Fount Bio, Inc., priority 2019, dated 2026).
Entries after “also recorded” stand apart in the source; their conditions may differ.

Columns and labels:
[1] = tested on: 3D reconstructed epidermis model (Epiderm tissue, Epi-200); test: Skin irritation test (OECD TG 439, EPI-200-SIT), MTT viability; format: cell-based, human; conditions: for reduction in cell viability in the skin tissue: 1 h exposure, MTT, relative to PBS, SDS 5%, HA-CBT 20 and 2 mg/mL, gly-CBT 1 and 0.1 mg/mL
Description: To evaluate the biocompatibility of CBT functionalized molecules, a skin irritation study was conducted using a 3D reconstructed epidermis model supplied by Mattek. The skin irritation test was conducted following the OECD TG 439 protocol as a basis. Upon receiving the Epiderm™ tissue (Epi-200) from Mattek, the tissue inserts were removed from agarose and incubated in 0.9 mL of media in 6 well plates for 1 h at 37° C. The tissue inserts were then transferred to new wells containing 0.9 mL of fresh media, and incubated overnight for 18 h at 37° C. 30 μL of PBS, HA-CBT (20 mg/mL and 2 mg/mL in PBS), gly-CBT (1 mg/mL and 0.1 mg/mL), and SDS (5 wt %) was applied and spread on the top of 3 independent tissue inserts each. After incubation at 37° C. for 1 h, the formulations were pipetted out and the tissue inserts were washed three times with PBS. The tissue inserts were then incubated in fresh media for 24 h at 37° C. The media was then exchanged with fresh media, and the inserts were incubated for an additional 18 h at 37° C. Following incubation, the viability of the tissue was assessed using the MTT assay, discussed in detail in a protocol established by Mattek (EPI-200-SIT).

[2] = Distribution of chemical species in EpiDerm tissue by HPLC with sequential extractions; format: in vitro ADME, human
Description: To further study the penetration of gly-CBT within human skin tissue, HPLC was used to quantify the distribution of different chemical species after application of gly-CBT and gly-aminoLuciferin (gly-Luc) into EpiDerm™ tissue. As described above, 100 μL of gly-CBT and gly-Luc was applied on the top of the skin tissue. Following 6 h incubation, the donor and acceptor solutions were collected and the chemical species which penetrated the skin were attempted to be extracted with 1:1 MeOH:PBS. Following the first extraction protocol, the tissue inserts were rinsed with PBS and imaged in a dark room by exposing with a UV254 lamp. Following the imaging, further extractions were carried out sequentially with 1.0% Triton X-100, acidified MeOH (0.1% TFA), and DCM. Neither of the later extractions were successful in extracting out any additional CBT species.

[3] = Skin penetration on porcine skin, fluorescence microscopy of cryosections; format: in vitro ADME
Description: Frozen, porcine skin was allowed to equilibrate to room temperature, and then cut into ~2×2 cm squares and placed into 0.9 mL of PBS in a 6 well plate. 25 μL of HA-CBT (10 mg/mL in PBS), gly-CBT (1 mg/mL in PBS), and PBS were gently spread on porcine skin to a 1 cm circle with a metal spatula. After spreading the formulations, the 6 well plate was placed into a humidified incubator at 37° C. for 18 h.
A small region in the center of the application area was then excised using a surgical scalpel, and placed into OCT in a biopsy mold. The tissue was snap frozen by placing the biopsy mold directly into a methylpentane, dry ice slurry. The tissue was then sectioned on a cryostat microtome to 20 μm sections. A drop of ProLong Gold was placed on each section and covered with a coverslip prior to imaging. Images were taken on a ZeissAxioPlan2 using a 10× objective and a DAPI filter to visualize the location of CBT.

[4] = Penetration of gly-CBT in 3D human skin model (EpiDerm), absorbance at 326 nm and microscopy; format: in vitro ADME
Description: The penetration and interactions of gly-CBT in human skin was assessed using a 3D human skin model (Mattek EpiDerm™). After allowing the skin tissues to equilibrate with media for 1 h at 37° C. in 6 well plates, the media was replaced with PBS and 100 μL of PBS and gly-CBT (1 mg/mL) were applied on top of 4 skin tissues each. Following 6 h incubation, a single tissue from each group was flash frozen in OCT for cryosectioning and microscopy. For the remaining samples, the liquid which remained on top of the tissue inserts (~100 μL) and the liquid in the acceptor solution (900 μL) was collected. The top of the tissue inserts were then washed 2× with PBS and then the inserts were submerged into 2 mL of a 1:1 PBS:MeOH solution to extract molecules which penetrated the skin. After performing the extraction for 2 h at 37° C., the concentration of gly-CBT was measured in the donor, acceptor, and extract solutions by reading the absorbance at 326 nm with a plate reader. The remaining tissue insert was cryosectioned and imaged using fluorescent microscopy as described in Example 1.

SMILES | reduction in cell viability in the skin tissue [1] | fluorescence of tissue insert under UV lamp ([2]; after first extraction process and washing step) | extractability from the tissue with Triton X-100, acidified methanol and dichloromethane ([2]; sequential extractions after 1:1 MeOH:PBS) | extraction of gly-CBT from porcine skin [3] | fluorescence signal in the dermis ([3]; 18 h at 37 °C, DAPI filter) | fluorescence within the stratum corneum and epidermis ([3]; 18 h at 37 °C, DAPI filter, HA-CBT 10 mg/mL, gly-CBT 1 mg/mL in PBS) | irritation classification ([1]; EPI-200-SIT, relative viability greater than 50% = non-irritant) | applied gly-CBT extracted from within the Epiderm tissue ([4]; 1:1 PBS:MeOH extraction 2 h at 37 °C) | total gly-CBT detected after extraction and in donor and acceptor solutions ([4]; 6 h incubation, 1:1 PBS:MeOH extraction) | fraction of the penetrated amount that appeared in the acceptor compartment ([4]; EpiDerm, 6 hours) | fraction of the penetrated amount that remained in the skin ([4]; EpiDerm, 6 hours) | applied dose that penetrated the skin ([4]; EpiDerm, within 6 hours) | fluorescent signal within the tissue by microscopy ([4]; after 6 h application, cryosection) | applied gly-CBT remaining on the surface of the epiderm tissue ([4]; after 6 h incubation, 1 mg/mL, absorbance 326 nm)
CCCCCCCCCCCCOS(=O)(=O)[O-].[Na+] [SDS, reference compound] | ~100% | – | – | – | – | – | – | – | – | – | – | – | – | –
N#Cc1nc2ccc(NC(=O)CN)cc2s1 [gly-CBT] | neither gly-CBT nor HA-CBT showed any reduction | extremely fluorescent | unable to be extracted; also recorded: could not be removed | inability to extract | lower signal | High fluorescence | non-irritants | ~ 10% | ~ 50% | about ⅓ | ⅔ | about 75% | significant fluorescent signal | ~ 25%
